Reference: patent US9701689B2, “Substituted pyridines and pyridazines as CCR10 receptor inhibitors” (KYOWA HAKKO KIRIN CO., LTD., priority 2012, dated 2017)

target: T1, human CCR10 (Homo sapiens, UniProt P46092); experiment: CCR10 antagonistic effect: calcium assay of human CCR10 (CTACK-induced increase of intracellular calcium in hCCR10G16 cells); assay type: cell-based; details: at a concentration of not more than 1000 nmol/L; human CCR10-expressing hCCR10G16 cells, 300 nmol/L CTACK added; read-out: inhibition of increase in the calcium ion concentration
T1 construct: expressed in transfected cells; host or cells: KJMGER8 cells (Namalwa cell-derived line), beta-estradiol-induced; hCCR10G16 cells
T1 sequence (P46092 1-362): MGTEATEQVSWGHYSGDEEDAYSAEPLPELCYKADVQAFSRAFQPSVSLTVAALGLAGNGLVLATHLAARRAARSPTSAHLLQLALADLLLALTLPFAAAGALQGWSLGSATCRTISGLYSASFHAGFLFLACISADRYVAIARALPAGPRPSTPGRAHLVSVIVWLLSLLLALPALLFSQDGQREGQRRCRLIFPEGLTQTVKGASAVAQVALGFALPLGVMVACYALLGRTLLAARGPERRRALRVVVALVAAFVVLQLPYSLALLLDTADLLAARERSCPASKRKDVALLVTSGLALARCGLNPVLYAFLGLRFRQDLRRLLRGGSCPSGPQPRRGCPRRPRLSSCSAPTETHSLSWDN
Experimental: [Experimental Example 1] CCR10 Antagonistic Effect
(1) Preparation of Human CCR10-Inducible Expression Plasmid
A CCR10-inducible expression plasmid was prepared according to a known method [Analytical Biochemistry, 2006, vol. 400, page 163]. A DNA encoding human CCR10 was obtained by PCR. Using human chromosome DNA (100 ng; manufactured by Clontech) as a template, synthetic DNA having the sequences depicted in SEQ ID NOs: 1 and 2 as a human CCR10 cDNA specific primer, and Pyrobest DNA Polymerase (manufactured by TAKARA SHUZO CO. LTD.) as an enzyme, a DNA encoding human CCR10 was obtained by PCR. As a buffer for PCR, the buffer attached to the enzyme to be used, which was diluted 10-fold with deionized water, was used. Using Thermal Cycler DNA Engine (manufactured by MJ Research), PCR was performed by 35 cycles of reactions composed of an incubation at 94° C. for 30 sec, at an anneal temperature of 58° C. for 30 sec, and at 72° C. for 1 min after treating at 90° C. for 2 min.
The amplified PCR fragment was cleaved with HindIII and NotI, then a human CCR10 DNA fragment was recovered by the agarose gel electrophoresis method. The fragment was incorporated between the corresponding restriction enzyme sites (HindIII-NotI) of an inducible expression vector to construct a human CCR10-inducible expression plasmid.
Using a primer specific to the sequence of plasmid (synthetic DNA having the sequences shown in SEQ ID NOs: 3 and 4), the sequence of human CCR10 DNA region was determined. For the determination of the base sequence, DNA Sequencer 377 (manufactured by Perkin Elmer. Co.) and a reaction kit (ABI Prism (registered trade mark) BigDye (registered trade mark) Terminator Cycle Sequencing Ready Reaction kit: manufactured by Applied Biosystems) were used. The sequence of human CCR10 DNA was identical with the sequence (NM 016602) registered in GenBank.
(2) Preparation of Human CCR10 Expressing Cell for Calcium Assay
Cells for detecting signals from human CCR10 in calcium assay were prepared. According to a known method [Analytical.Biochemistry (Analy Biochem), 2006, vol. 400, page 163], human CCR10-inducible expressing cells whose host cell is KJMGER8 cell (Namalwa cell-derived cell line) were prepared. Human CCR10-inducible expression plasmid produced above and Gα16 expression plasmid were co-transfected into the KJMGER8 cells by the electroporation method [Cytotechnology, 1990, vol. 3, page 133], whereby the signals from human CCR10 could be detected by calcium assay (hereinafter to be referred to as hCCR10G16 cell). A Ga16 expression plasmid was produced by incorporating human Ga16 DNA into expression vector pAMoh (WO 03/087366). Expression of human CCR10 was induced by cultivating hCCR10G16 cells in the presence of 10 nmol/L β-estradiol (manufactured by Sigma Ltd.) for 24 hr.
(3) Calcium Assay of Human CCR10
Cells expressing human CCR10 induced by the above-mentioned method were suspended in RPMI1640 medium (manufactured by Invitrogen), and adjusted to a cell density of 2×10^6 cells/mL. The cells were blended with an equivalent volume of a loading buffer prepared according to the attached protocol of Fluo-3 calcium assay kit (manufactured by Molecular Devices Corporation), and incubated at 37° C. for several dozen minutes. This mixture was dispensed to a 384 well clear-bottom plate (manufactured by Corning Incorporated) at 40 μL/well. To this plate was added a solution of the test compound in dimethyl sulfoxide (DMSO), which was diluted 37-fold with RPMI1640 medium, at 5 μL/well, and the mixture was incubated at 37° C. for 30 min. 300 nmol/L human recombinant CTACK (manufactured by R&D Systems, Inc.) diluted with RPMI1640 medium containing 1 w/v % bovine serum albumin (manufactured by Sigma Ltd.) was added at 5 μL/well and, variation of intracellular calcium ion concentration for about 5 min after the addition was measured by a screening apparatus (FDSS; manufactured by Hamamatsu Photonics K.K.). […]

Inhibition at up to 1 µM, ≥ 50%:
CCCNC(=O)NS(=O)(=O)c1cc(Nc2cc(C)ccc2Cl)c(C(=O)N2CCC(c3ccc(F)cc3)CC2)cn1 [Compound 162, 4-(2-chloro-5-methylphenylamino)-5-[4-(4-fluorophenyl)piperidine-1-carbonyl]-N-(propylcarbamoyl)pyridine-2-sulfonamide]
COc1ccc(Nc2c(C(=O)N3CCC(c4ccc(F)cc4)CC3)cnc(S(N)(=O)=O)c2Cl)cc1 [Compound 29, 3-chloro-5-[4-(4-fluorophenyl)piperidine-1-carbonyl]-4-(4-methoxyphenylamino)pyridine-2-sulfonamide]
Cc1c(S(=O)(=O)Nc2ccon2)ncc(C(=O)N2CCC(c3ccc(F)cc3)CC2)c1NC1CCCCC1 [Compound 215, 4-(cyclohexylamino)-5-[4-(4-fluorophenyl)piperidine-1-carbonyl]-N-(isoxazol-3-yl)-3-methylpyridine-2-sulfonamide]
NS(=O)(=O)c1ncc(C(=O)N2CCC(c3ccc(F)cc3)CC2)c(Oc2cccc(F)c2)c1Cl [Compound 238, 3-chloro-4-(3-fluorophenoxy)-5-[4-(4-fluorophenyl)piperidine-1-carbonyl]pyridine-2-sulfonamide]
N#Cc1ccc([N+](=O)[O-])cc1Nc1c(C(=O)N2CCC(c3ccc(F)cc3)CC2)cnc(S(N)(=O)=O)c1Cl [Compound 322, 3-chloro-4-(2-cyano-5-nitrophenylamino)-5-[4-(4-fluorophenyl)piperidine-1-carbonyl]pyridine-2-sulfonamide]
COCCNS(=O)(=O)c1cc(Nc2ccc(F)cc2C)c(C(=O)N2CCC(c3ccc(F)cc3)CC2)cn1 [Compound 112, 4-(4-fluoro-2-methylphenylamino)-5-[4-(4-fluorophenyl)piperidine-1-carbonyl]-N-(2-methoxyethyl)pyridine-2-sulfonamide]
COc1ccc(Nc2cc(S(N)(=O)=O)ncc2C(=O)N2CCC(c3ccc(F)cc3)CC2)cc1 [Compound 84, 5-[4-(4-fluorophenyl)piperidine-1-carbonyl]-4-(4-methoxyphenylamino)pyridine-2-sulfonamide]
NS(=O)(=O)c1ncc(C(=O)N2CCC(c3ccc(F)cc3)CC2)c(Nc2ccc(F)cc2F)c1Cl [Compound 27, 3-chloro-4-(2,4-difluorophenylamino)-5-[4-(4-fluorophenyl)piperidine-1-carbonyl]pyridine-2-sulfonamide]
NS(=O)(=O)c1ncc(C(=O)N2CCC(c3ccc(F)cc3)CC2)c(Cc2ccccc2)c1Cl [Compound 212, 4-benzyl-3-chloro-5-[4-(4-fluorophenyl)piperidine-1-carbonyl]pyridine-2-sulfonamide]
COc1cc(F)ccc1Nc1cc(S(N)(=O)=O)ncc1C(=O)N1CCC(c2ccc(F)cc2)CC1 [Compound 99, 4-(4-fluoro-2-methoxyphenylamino)-5-[4-(4-fluorophenyl)piperidine-1-carbonyl]pyridine-2-sulfonamide]
Cc1cc(NS(=O)(=O)c2ncc(C(=O)N3CCC(c4ccc(F)cc4)CC3)c(Nc3cccc(F)c3)c2C)sn1 [Compound 267, 5-[4-(4-fluorophenyl)piperidine-1-carbonyl]-4-(3-fluorophenylamino)-3-methyl-N-(3-methylisothiazol-5-yl)pyridine-2-sulfonamide]
CC(=O)NS(=O)(=O)c1cc(Nc2ccc(F)cc2C)c(C(=O)N2CCC(c3ccc(F)cc3)CC2)cn1 [Compound 13, N-{4-(4-fluoro-2-methylphenylamino)-5-[4-(4-fluorophenyl)piperidine-1-carbonyl]pyridine-2-sulfonyl}acetamide]
Cc1cc(F)ccc1Nc1c(C(=O)N2CCC(C#N)(c3ccccc3)CC2)cnc(S(N)(=O)=O)c1Cl [Compound 195, 3-chloro-5-(4-cyano-4-phenylpiperidine-1-carbonyl)-4-(4-fluoro-2-methylphenylamino)pyridine-2-sulfonamide]
Cc1cc(Cl)ccc1Nc1cc(S(N)(=O)=O)ncc1C(=O)N1CCC2(CC1)OCc1ccccc12 [Compound 46, 4-(4-chloro-2-methylphenylamino)-5-(3H-spiro[isobenzofuran-1,4′-piperidine]-1′-ylcarbonyl]pyridine-2-sulfonamide]
Cc1c(S(N)(=O)=O)ncc(C(=O)N2CCC(c3ccc(F)cc3)CC2)c1NC1CCCCC1 [Compound 207, 4-(cyclohexylamino)-5-[4-(4-fluorophenyl)piperidine-1-carbonyl]-3-methylpyridine-2-sulfonamide]
Cc1cc(F)ccc1Nc1cc(S(=O)(=O)N2CCCCC2)ncc1C(=O)N1CCC(c2ccc(F)cc2)CC1 [Compound 121, [4-(4-fluoro-2-methylphenylamino)-6-(piperidin-1-ylsulfonyl)pyridin-3-yl][4-(4-fluorophenyl)piperidin-1-yl]methanone]
Cc1c(S(=O)(=O)Nc2ccon2)ncc(C(=O)N2CCC(c3ccc(F)cc3)CC2)c1Nc1cc(F)c(F)cc1F [Compound 246, 5-[4-(4-fluorophenyl)piperidine-1-carbonyl]-N-(isoxazol-3-yl)-3-methyl-4-(2,4,5-trifluorophenylamino)pyridine-2-sulfonamide]
Cc1cc(F)ccc1Nc1cc(S(=O)(=O)NC2CCNC2=O)ncc1C(=O)N1CCC(c2ccc(F)cc2)CC1 (centres unmarked) [Compound 142, 4-(4-fluoro-2-methylphenylamino)-5-[4-(4-fluorophenyl)piperidine-1-carbonyl]-N-(2-oxopyrrolidin-3-yl)pyridine-2-sulfonamide]
NS(=O)(=O)c1cc(NCc2ccccc2)c(C(=O)N2CCC(c3ccc(F)cc3)CC2)cn1 [Compound 15, 4-(benzylamino)-5-[4-(4-fluorophenyl)piperidine-1-carbonyl]pyridine-2-sulfonamide]
NS(=O)(=O)c1cc(Nc2ccc(OC(F)F)cc2)c(C(=O)N2CCC(c3ccc(F)cc3)CC2)cn1 [Compound 106, 4-[4-(difluoromethoxy)phenylamino]-5-[4-(4-fluorophenyl)piperidine-1-carbonyl]pyridine-2-sulfonamide]
